Measurements reported in ChEMBL document CHEMBL3885861, “Open TG-GATES”.

Species on record: Rattus norvegicus
Assay: Open TG-GATES - Regimen: Daily Repeat
Assay type: toxicity, organism-based, Sprague-Dawley
Design: regimen Daily Repeat, gender Male, age 6 weeks
Conditions: in vivo, po, 3 mg/kg, route gavage, dose level Low; for APTT / Bas / Eos / Fbg / Hb / Ht / Lym / MCH / MCHC / MCV / Mono / Neu / PT / Plat / RBC / Ret / WBC: tissue Blood; for KIDNEY_L / KIDNEY_R / KIDNEY_TOTAL: tissue Kidney; for LIVER: tissue Liver; for A/G / ALP / ALT / AST / BUN / CRE / Ca / Cl / DBIL / GLC / IP / K / LDH / Na / PL / RALB / TBIL / TC / TG / TP / gamma-GTP: tissue Plasma

Nc1c2c(nc3ccccc13)CCCC2 [TACRINE]
TERMINAL_BW (72 h, time 3 day): 218.9 g | APTT (72 h, time 3 day): 21 s | Bas (72 h, time 3 day): 0% | Eos (72 h, time 3 day): 0.8% | Fbg (72 h, time 3 day): 309.2 mg/dL | Hb (72 h, time 3 day): 13.8 g/dL | Ht (72 h, time 3 day): 39.3% | Lym (72 h, time 3 day): 80.2% | MCH (72 h, time 3 day): 21 pg | MCHC (72 h, time 3 day): 35% | MCV (72 h, time 3 day): 60.1 fL | Mono (72 h, time 3 day): 2.8% | Neu (72 h, time 3 day): 15.2% | PT (72 h, time 3 day): 16.1 s | Plat (72 h, time 3 day): 115.7 x10_4/uL | RBC (72 h, time 3 day): 655.6 x10_4/ul | Ret (72 h, time 3 day): 5.8% | WBC (72 h, time 3 day): 128.8 x10_2/uL | KIDNEY_L (72 h, time 3 day): 0.9 g | KIDNEY_R (72 h, time 3 day): 1 g | KIDNEY_TOTAL (72 h, time 3 day): 1.9 g | LIVER (72 h, time 3 day): 10 g | A/G (72 h, time 3 day): 1.3 | ALP (72 h, time 3 day): 1457.8 IU/L | ALT (72 h, time 3 day): 48.6 IU/L | AST (72 h, time 3 day): 78.4 IU/L | BUN (72 h, time 3 day): 17.8 mg/dL | CRE (72 h, time 3 day): 0.2 mg/dL | Ca (72 h, time 3 day): 10.8 mg/dL | Cl (72 h, time 3 day): 106.8 meq/L | DBIL (72 h, time 3 day): 0.004 mg/dL | GLC (72 h, time 3 day): 190.2 mg/dL | IP (72 h, time 3 day): 7.2 mg/dL | K (72 h, time 3 day): 4.2 meq/L | LDH (72 h, time 3 day): 313 IU/L | Na (72 h, time 3 day): 142 meq/L | PL (72 h, time 3 day): 168 mg/dL | RALB (72 h, time 3 day): 3.2 g/dL | TBIL (72 h, time 3 day): 0.016 mg/dL | TC (72 h, time 3 day): 85.6 mg/dL | TG (72 h, time 3 day): 111 mg/dL | TP (72 h, time 3 day): 5.6 g/dL | gamma-GTP (72 h, time 3 day): 1 IU/L | TERMINAL_BW ([…], time 7 day): 247.7 g | TERMINAL_BW ([…], time 14 day): 303.9 g | TERMINAL_BW ([…], time 28 day): 351.6 g | APTT ([…], time 7 day): 21.5 s | Bas ([…], time 7 day): 0% | Eos ([…], time 7 day): 1% | Fbg ([…], time 7 day): 301 mg/dL | Hb ([…], time 7 day): 13.7 g/dL | Ht ([…], time 7 day): 38.9% | Lym ([…], time 7 day): 81.6% | MCH ([…], time 7 day): 21.3 pg | MCHC ([…], time 7 day): 35.3% | MCV ([…], time 7 day): 60.3 fL | Mono ([…], time 7 day): 2.2% | Neu ([…], time 7 day): 14.6% | PT ([…], time 7 day): 16.1 s | Plat ([…], time 7 day): 112.9 x10_4/uL | RBC ([…], time 7 day): 645.2 x10_4/ul | Ret ([…], time 7 day): 6% | WBC ([…], time 7 day): 119.7 x10_2/uL | APTT ([…], time 14 day): 23.3 s | Bas ([…], time 14 day): 0% | Eos ([…], time 14 day): 1% | Fbg ([…], time 14 day): 309.4 mg/dL | Hb ([…], time 14 day): 14.5 g/dL | Ht ([…], time 14 day): 41.1% | Lym ([…], time 14 day): 79.8% | MCH ([…], time 14 day): 21.1 pg | MCHC ([…], time 14 day): 35.4% | MCV ([…], time 14 day): 59.5 fL | Mono ([…], time 14 day): 1.4% | Neu ([…], time 14 day): 17.4% | PT ([…], time 14 day): 15.5 s | Plat ([…], time 14 day): 132.9 x10_4/uL | RBC ([…], time 14 day): 690.8 x10_4/ul | Ret ([…], time 14 day): 4.6% | WBC ([…], time 14 day): 104.3 x10_2/uL | APTT ([…], time 28 day): 23.8 s | Bas ([…], time 28 day): 0% | Eos ([…], time 28 day): 1% | Fbg ([…], time 28 day): 294.8 mg/dL | Hb ([…], time 28 day): 15.6 g/dL | Ht ([…], time 28 day): 42.8% | Lym ([…], time 28 day): 84% | MCH ([…], time 28 day): 20.1 pg | MCHC ([…], time 28 day): 36.5% | MCV ([…], time 28 day): 55.2 fL | Mono ([…], time 28 day): 1.6% | Neu ([…], time 28 day): 12.6% | PT ([…], time 28 day): 16.3 s | Plat ([…], time 28 day): 99.5 x10_4/uL | RBC ([…], time 28 day): 776.2 x10_4/ul | Ret ([…], time 28 day): 2.5% | WBC ([…], time 28 day): 118.7 x10_2/uL | KIDNEY_L ([…], time 7 day): 1 g | KIDNEY_R ([…], time 7 day): 1.1 g | KIDNEY_TOTAL ([…], time 7 day): 2.1 g | KIDNEY_L ([…], time 14 day): 1.2 g | KIDNEY_R ([…], time 14 day): 1.2 g | KIDNEY_TOTAL ([…], time 14 day): 2.4 g | KIDNEY_L ([…], time 28 day): 1.3 g | KIDNEY_R ([…], time 28 day): 1.2 g | KIDNEY_TOTAL ([…], time 28 day): 2.5 g | LIVER ([…], time 7 day): 11 g | LIVER ([…], time 14 day): 13.3 g | LIVER ([…], time 28 day): 13.9 g | A/G ([…], time 7 day): 1.2 | ALP ([…], time 7 day): 1691 IU/L | ALT ([…], time 7 day): 37.2 IU/L | AST ([…], time 7 day): 68.2 IU/L | BUN ([…], time 7 day): 18.6 mg/dL | CRE ([…], time 7 day): 0.2 mg/dL | Ca ([…], time 7 day): 10.7 mg/dL | Cl ([…], time 7 day): 108 meq/L | DBIL ([…], time 7 day): 0 mg/dL | GLC ([…], time 7 day): 187.8 mg/dL | IP ([…], time 7 day): 7.4 mg/dL | K ([…], time 7 day): 4.1 meq/L | LDH ([…], time 7 day): 156.8 IU/L | Na ([…], time 7 day): 142.6 meq/L | PL ([…], time 7 day): 158 mg/dL | RALB ([…], time 7 day): 3.1 g/dL | TBIL ([…], time 7 day): 0.028 mg/dL | TC ([…], time 7 day): 81.6 mg/dL | TG ([…], time 7 day): 101.2 mg/dL | TP ([…], time 7 day): 5.7 g/dL | gamma-GTP ([…], time 7 day): 1.6 IU/L | A/G ([…], time 14 day): 1.2 | ALP ([…], time 14 day): 1333.2 IU/L | ALT ([…], time 14 day): 39.2 IU/L | AST ([…], time 14 day): 65.2 IU/L | BUN ([…], time 14 day): 18.2 mg/dL | CRE ([…], time 14 day): 0.2 mg/dL | Ca ([…], time 14 day): 10.8 mg/dL | Cl ([…], time 14 day): 107.4 meq/L | DBIL ([…], time 14 day): 0 mg/dL | GLC ([…], time 14 day): 191.6 mg/dL | IP ([…], time 14 day): 6.5 mg/dL | K ([…], time 14 day): 4.2 meq/L | LDH ([…], time 14 day): 164 IU/L | Na ([…], time 14 day): 142 meq/L | PL ([…], time 14 day): 153 mg/dL | RALB ([…], time 14 day): 3.2 g/dL | TBIL ([…], time 14 day): 0.018 mg/dL | TC ([…], time 14 day): 75.6 mg/dL | TG ([…], time 14 day): 121.4 mg/dL | TP ([…], time 14 day): 5.9 g/dL | gamma-GTP ([…], time 14 day): 1.8 IU/L | A/G ([…], time 28 day): 1.1 | ALP ([…], time 28 day): 1169.6 IU/L | ALT ([…], time 28 day): 38.2 IU/L | AST ([…], time 28 day): 67.6 IU/L | BUN ([…], time 28 day): 18.8 mg/dL | CRE ([…], time 28 day): 0.2 mg/dL | Ca ([…], time 28 day): 10.3 mg/dL | Cl ([…], time 28 day): 107.6 meq/L | DBIL ([…], time 28 day): 0 mg/dL | GLC ([…], time 28 day): 190.6 mg/dL | IP ([…], time 28 day): 5.9 mg/dL | K ([…], time 28 day): 3.9 meq/L | LDH ([…], time 28 day): 137 IU/L | Na ([…], time 28 day): 142.6 meq/L | PL ([…], time 28 day): 140 mg/dL | RALB ([…], time 28 day): 3.2 g/dL | TBIL ([…], time 28 day): 0.004 mg/dL | TC ([…], time 28 day): 71.8 mg/dL | TG ([…], time 28 day): 98.6 mg/dL | TP ([…], time 28 day): 6 g/dL | gamma-GTP ([…], time 28 day): 1 IU/L
